Where “and” joins values, the source holds several entries; their conditions need not be identical. Identical values can stand only once. Entries after “also recorded” stand apart in the source; their conditions may differ.
Key:
[1] = In vivo antitumor testing, Pat-7 in nude mice; conditions: nude, mouse, in vivo
Procedure: (§1) All tumor implants for efficacy testing were subcutaneous (sc).
(§2) The MTD was frequently equivalent to OD. When death occurs, the day of death was recorded.
(§3) And, Log cell kill=T−C÷(3.32×TVDT)
(§4) This tumor model was established from a tumor biopsy of an ovarian cancer patient (Pat-7), who was initially responsive to TAXOL® treatment but ultimately developed resistance to it following nine courses of monotherapy with TAXOL®. Prior to treatment with TAXOL®, Pat-7 also received numerous other chemotherapeutic agents including carboplatin, cytoxan, VP-16, ifosfamide and altretamine. Tumor biopsy was taken following development of TAXOL® resistance.

[2] = tested on: Pat-7 human ovarian carcinoma; assay: In vivo antitumor testing, Pat-7 in nude mice
Procedure: as §1, §2, §3, §4

HCT-116 = assay: In vitro cytotoxicity (MTS assay), HCT-116; assay type: cell-based; conditions: Homo sapiens; HCT-116, 72 hour incubation
Procedure: HCT116 human carcinoma cell lines and HCT116/VM46 cells, a MDR variant, were maintained in McCoy's 5A medium (GIBCO) and 10% heat inactivated fetal bovine serum (GIBCO). A2780 human ovarian carcinoma cells and A2780Tax cells obtained from Dr. Antonio Fojo (NCI, Bethesda, Md.) were maintained in IMEM (GIBCO) and 10% fetal bovine serum (GIBCO).
The in vitro cytotoxicity was assessed in tumor cells by a tetrazolium-based colorimetric assay which takes advantage of the metabolic conversion of MTS (3-(4,5-dimethylthiazol-2-yl)-5-(3-carboxymethoxyphenyl)-2-(4-sulphenyl)-2H-tetrazolium, inner salt) to a reduced form that absorbs light at 492 nm. Cells were seeded 24 hr prior to drug addition. Following a 72 hour incubation at 37° C. with serially diluted compound, MTS, in combination with the electron coupling agent phenazine methosulfate, was added to the cells. The incubation was continued for 3 hours, then the absorbancy of the medium at 492 nm was measured with a spectrophotometer to obtain the number of surviving cells relative to control populations. The results are expressed as median cytotoxic concentrations (IC50 values).

[3] = tested on: A2780 human ovarian carcinoma; assay: In vivo antitumor testing, A2780 in nude rats
Procedure: as §2, §3
A2780 grown in nude rats was also utilized.

[4] = In vivo antitumor testing, A2780 in nude mice; conditions: nude, mouse, in vivo, iv, Compound 1 IV, read-out: OD (optimal dose or MTD)
Procedure: as §1, §2, §3

[5] = tested on: A2780 human ovarian carcinoma; assay: In vivo antitumor testing, A2780 in nude mice
Procedure: as §1, §2, §3

[6] = In vivo antitumor testing, Pat-7 in nude rats; conditions: nude, rat, in vivo, iv; read-out: OD (optimal dose or MTD)
Procedure: as §2, §3

[7] = tested on: Pat-7 human ovarian carcinoma; assay: In vivo antitumor testing, Pat-7 in nude rats; conditions: Expt. 15, nude rats, IV q8dx2, OD 3 mg/kg
Procedure: as §2, §3

[8] = In vivo antitumor testing, M5076 murine sarcoma; set-up: species or system mice; conditions: (C57Bl/6×DBA/2)F1 hybrid, mouse, in vivo, iv, Compound 1 IV, read-out: OD (optimal dose or MTD)
Procedure: (§5) The murine fibrosarcoma M5076 was also employed.
(§6) The human tumors were maintained in Balb/c nu/nu nude mice. M5076 was maintained in C57BL/6 mice. Tumors were propagated as subcutaneous transplants in the appropriate mouse strain using tumor fragments obtained from donor mice.
as §1, §2, §3

[9] = tested on: M5076 murine fibrosarcoma; assay: In vivo antitumor testing, M5076 murine sarcoma; set-up: species or system mice
Procedure: as §5, §6, §1, §2, §3

[10] = In vivo antitumor testing, HCT116 xenograft; set-up: species or system nude mice; conditions: nude, mouse, in vivo, read-out: OD (optimal dose or MTD)
Procedure: as §1, §2, §3

[11] = tested on: HCT116 human colon carcinoma; assay: In vivo antitumor testing, HCT116 xenograft; set-up: species or system nude mice
Procedure: as §1, §2, §3

[12] = Stability as a function of pH; assay type: physicochemical; conditions: neutral pH versus low pH
[13] = Expt. 89, IV q2dx5, OD 6.3 mg/kg
[14] = Expt. 115, IV q2dx5, OD 6.3 mg/kg
[15] = Expt. 115, IV q4dx3, OD 16 mg/kg
[16] = Expt. 52, IV q2dx5, OD 6.3 mg/kg
[17] = Expt. 52, IV q4dx3, OD 10 mg/kg
[18] = Expt. 52, IV q8dx2, OD 24 mg/kg
[19] = Expt. 52, PO q2dx5, OD 90 mg/kg

C/C(=C\c1csc(C)n1)[C@@H]1C[C@@H]2O[C@]2(C)CCC[C@H](C)[C@H](O)[C@@H](C)C(=O)C(C)(C)[C@@H](O)CC(=O)N1 (relative stereo) [Compound 1, [1S-[1R*,3R*(E),7R*,10S*,11R*,12R*,16S*]]-7,11-dihydroxy-8,8,10,12,16-pentamethyl-3-[1-methyl-2-(2-methyl-4-thiazolyl)ethenyl]-4-aza-17-oxabicyclo[14.1.0] heptadecane-5,9-dione]
MTD ([1]; iv, Compound 1 IV, q2dx5, read-out: OD (optimal dose or maximum tolerated dose, MTD)): 4.8 mg/kg
MTD ([1]; iv, Compound 1 IV, q4dx3, read-out: OD (optimal dose or MTD)): 15 mg/kg
MTD ([1]; po, Compound 1 PO, q2dx5, read-out: OD (optimal dose or MTD)): 60 mg/kg
OD (optimal dose or maximum tolerated dose, MTD) ([2]; Compound 1 IV, q2dx5): 6.3 mg/kg
OD (optimal dose or MTD) ([2]; Compound 1 PO, q2dx5): 80 mg/kg
LCK (gross log cell kill) ([2]; Expt. 8, IV q2dx5, OD 6.3 mg/kg): 4.5
LCK (gross log cell kill) ([2]; Expt. 8, PO q2dx5, OD 60 mg/kg): 3.1
LCK (gross log cell kill) ([2]; Expt. 9, PO q2dx5, OD 80 mg/kg): 2.5
LCK (gross log cell kill) ([2]; Expt. 12, IV q2dx5, OD 6.3 mg/kg): 2.1
LCK (gross log cell kill) ([2]; Expt. 12, IV q4dx3, OD 15 mg/kg): 1.7
LCK (gross log cell kill) ([2]; Expt. R403, IV q2dx5, OD 4.8 mg/kg): 2.1
IC50 (HCT-116): 2.6 nM
MTD ([3]; Compound 1, every 2 days x5, nude rats): 1.2 mg/kg/inj
LCK ([3]; nude rats, every 2 days x5, MTD 1.2 mg/kg/inj): 0.3
MTD ([4]; q2dx5): 6.3 mg/kg
MTD ([4]; q4dx3): 16 mg/kg
OD (optimal dose or MTD) ([5]; Compound 1 IV, q2dx5): 4.8 mg/kg
LCK (gross log cell kill) [5, 13]: > 4.8
cures/total [5, 13]: 3/7
LCK (gross log cell kill) ([5]; Expt. 92, IV q2dx5, OD 6.3 mg/kg): 2
LCK (gross log cell kill) ([5]; Expt. 111, IV q2dx5, OD 4.8 mg/kg): 3.1
LCK (gross log cell kill) [5, 14]: 2.4
cures/total [5, 14]: 0/8
LCK (gross log cell kill) [5, 15]: >5.3
cures/total [5, 15]: 3/7
MTD [6]: 3 mg/kg
LCK (gross log cell kill) [7]: >5
cures/total [7]: 4 of 6 and (4/6)
MTD ([8]; q2dx5): 8.4 mg/kg
MTD ([8]; q4dx3): 24 mg/kg
LCK (gross log cell kill) ([9]; Expt. 159, IV q2dx5, OD 8.4 mg/kg): 0.5
LCK (gross log cell kill) ([9]; Expt. 162, IV q2dx5, OD 8.4 mg/kg): 0.7
LCK (gross log cell kill) ([9]; Expt. 172, IV q4dx3, OD 24 mg/kg): 1.0
MTD ([10]; iv, Compound 1 IV, q2dx5): 6.3 mg/kg
MTD ([10]; iv, Compound 1 IV, q4dx3): 10 mg/kg
MTD ([10]; iv, Compound 1 IV, q8dx2): 24 mg/kg
MTD ([10]; po, Compound 1 PO, q2dx5): 90 mg/kg
LCK (gross log cell kill) [11, 16]: > 6.3
cures/total [11, 16]: 4 of 8 and 4/8
LCK (gross log cell kill) [11, 17]: > 6.3
cures/total [11, 17]: 5 of 8 and 5/8
LCK (gross log cell kill) [11, 18]: > 6.3
cures/total [11, 18]: 8 of 8 and 8/8
LCK (gross log cell kill) [11, 19]: >6.3
cures/total [11, 19]: seven of eight; also recorded: (7/8)
stability versus pH [12]: significantly more stable at neutral pH than at low pH

— patent US7312237B2, “Combination of epothilone analogs and chemotherapeutic agents for the treatment of prolilferative diseases” (Bristol-Myers Squibb Co., priority 2001, dated 2007)
